Test results taken from US12077503B2, “Substituted cyclic amides and their use as herbicides” (FMC CORPORATION, priority 2015, dated 2024).

Assays:
Assay type in all cases: in vivo
[1] = system: pigweed (Amaranthus retroflexus); experiment: Test A postemergence; settings: Amaranthus retroflexus, post-emergence, 240 h, read-out: Plant response rating, Pigweed
Procedure, shortened: (§1)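 Seeds sprayed preemergence with a directed soil spray, or plants at 2 to 10 cm height and one- to two-leaf stage sprayed postemergence, with test chemicals in a non-phytotoxic solvent mixture containing surfactant, in loam soil–sand blend. Injury rated visually against untreated controls after about 10 d in greenhouse, 0 (no effect) to 100 (complete control).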

[2] = system: wheat (Triticum aestivum); experiment: Test A postemergence; settings: Triticum aestivum, post-emergence, 240 h, read-out: Plant response rating, Wheat
Procedure, shortened: as §1

[3] = system: ragweed (common ragweed, Ambrosia elatior); experiment: Test A postemergence; settings: Ambrosia artemisiifolia, post-emergence, 240 h, read-out: Plant response rating, Ragweed
Procedure, shortened: as §1

[4] = system: ryegrass, Italian (Italian ryegrass, Lolium multiflorum); experiment: Test A postemergence; settings: Lolium multiflorum, post-emergence, 240 h, read-out: Plant response rating, Ryegrass, Italian
Procedure, shortened: as §1

corn (Zea mays) = experiment: Test A postemergence; settings: Zea mays, post-emergence, 240 h
Procedure, shortened: as §1

[5] = system: blackgrass (Alopecurus myosuroides); experiment: Test A postemergence; settings: Alopecurus myosuroides, post-emergence, 240 h, read-out: Plant response rating, Blackgrass
Procedure, shortened: as §1

Kochia (Kochia scoparia) [6] = experiment: Test A postemergence; settings: Bassia scoparia, post-emergence, 240 h, read-out: Plant response rating, Kochia
Procedure, shortened: as §1

[7] = system: giant foxtail (Setaria faberii); experiment: Test A postemergence; settings: Setaria faberi, post-emergence, 240 h, read-out: Plant response rating, Foxtail, Giant
Procedure, shortened: as §1

[8] = system: barnyardgrass (Echinochloa crus-galli); experiment: Test A postemergence; settings: Echinochloa crus-galli, post-emergence, 240 h, read-out: Plant response rating, Barnyardgrass
Procedure, shortened: as §1

[9] = system: Galium (catchweed bedstraw, Galium aparine); experiment: Test A postemergence; settings: Galium, post-emergence, 240 h, read-out: Plant response rating, Galium
Procedure, shortened: as §1

[10] = system: pigweed (Amaranthus retroflexus); experiment: Test A preemergence; settings: Amaranthus retroflexus, pre-emergence, 240 h
[11] = system: ragweed (common ragweed, Ambrosia elatior); experiment: Test A preemergence; settings: Ambrosia artemisiifolia, pre-emergence, 240 h
Procedure, shortened: as §1

[12] = system: ryegrass, Italian (Italian ryegrass, Lolium multiflorum); experiment: Test A preemergence; settings: Lolium multiflorum, pre-emergence, 240 h
Procedure, shortened: as §1

Kochia (Kochia scoparia) [13] = experiment: Test A preemergence; settings: Bassia scoparia, pre-emergence, 240 h
Procedure, shortened: as §1

[14] = system: barnyardgrass (Echinochloa crus-galli); experiment: Test A preemergence; settings: Echinochloa crus-galli, pre-emergence, 240 h
Procedure, shortened: as §1

[15] = 125 g ai/ha, Postemergence, visual injury after approximately 10 d, 0 to 100 scale where 0 is no effect and 100 is complete control
[16] = 500 g ai/ha, postemergence, visual injury, 0 to 100 scale (0 no effect, 100 complete control), approx. 10 d

For `Cc1ccc([C@H]2CN(C)C(=O)[C@@H]2C(=O)Nc2cccc(F)c2F)cc1Cl` [Compound 1013], the pest or weed control at 125 g/ha [1, 15] was 0%, the pest or weed control at 500 g/ha [1, 16] was 40% and the plant injury at 125 g/ha [2, 15] was 40%. For the same compound, the plant injury at 500 g/ha [2, 16] was 60%, the pest or weed control at 125 g/ha [3, 15] was 0% and the pest or weed control at 500 g/ha [3, 16] was 40%. For the same compound, the pest or weed control at 125 g/ha [4, 15] was 0%, the pest or weed control at 500 g/ha [4, 16] was 60% and the Corn plant response rating (crop injury, 0 = no effect, 100 = complete kill) at 125 g/ha (corn (Zea mays); [15]) was 80%. For the same compound, the Corn plant response rating (crop injury, 0 = no effect, 100 = complete kill) at 500 g/ha (corn (Zea mays); [16]) was 90%, the pest or weed control at 125 g/ha [5, 15] was 0% and the pest or weed control at 500 g/ha [5, 16] was 40%. It also gave a pest or weed control at 125 g/ha (Kochia (Kochia scoparia) [6]; [15]) of 40%, a pest or weed control at 500 g/ha (Kochia (Kochia scoparia) [6]; [16]) of 60% and a pest or weed control at 125 g/ha [7, 15] of 80%. For the same compound, the pest or weed control at 500 g/ha [7, 16] was 90%, the pest or weed control at 125 g/ha [8, 15] was 90% and the pest or weed control at 500 g/ha [8, 16] was 90%. For the same compound, the pest or weed control at 125 g/ha [9, 15] was 70%, the pest or weed control at 500 g/ha [9, 16] was 70% and the pest or weed control at 125 g/ha ([10]; 125 g ai/ha, Preemergence, visual injury rating after approximately 10 d, read-out: Pigweed plant response rating (0 to 100 scale, 0 is no effect, 100 is complete control)) was 30%. For the same compound, the pest or weed control at 500 g/ha ([10]; 500 g ai/ha, preemergence, visual injury rating about 10 d after treatment, 0 to 100 scale (0 no effect, 100 complete control), read-out: Pigweed plant response rating) was 40%, the pest or weed control at 125 g/ha ([11]; 125 g ai/ha, Preemergence, visual injury rating after approximately 10 d, read-out: Ragweed plant response rating (0 to 100 scale, 0 is no effect, 100 is complete control)) was 0% and the pest or weed control at 500 g/ha ([11]; 500 g ai/ha, preemergence, visual injury rating about 10 d after treatment, 0 to 100 scale (0 no effect, 100 complete control), read-out: Ragweed plant response rating) was 0%. The pest or weed control at 125 g/ha ([12]; 125 g ai/ha, Preemergence, visual injury rating after approximately 10 d, read-out: Ryegrass, Italian plant response rating (0 to 100 scale, 0 is no effect, 100 is complete control)) was 30%, the pest or weed control at 500 g/ha ([12]; 500 g ai/ha, preemergence, visual injury rating about 10 d after treatment, 0 to 100 scale (0 no effect, 100 complete control), read-out: Ryegrass, Italian plant response rating) was 70% and the pest or weed control at 125 g/ha (Kochia (Kochia scoparia) [13]; 125 g ai/ha, Preemergence, visual injury rating after approximately 10 d, read-out: Kochia plant response rating (0 to 100 scale, 0 is no effect, 100 is complete control)) was 50%. It also gave a pest or weed control at 500 g/ha (Kochia (Kochia scoparia) [13]; 500 g ai/ha, preemergence, visual injury rating about 10 d after treatment, 0 to 100 scale (0 no effect, 100 complete control), read-out: Kochia plant response rating) of 70%, a pest or weed control at 125 g/ha ([14]; 125 g ai/ha, Preemergence, visual injury rating after approximately 10 d, read-out: Barnyardgrass plant response rating (0 to 100 scale, 0 is no effect, 100 is complete control)) of 90% and a pest or weed control at 500 g/ha ([14]; 500 g ai/ha, preemergence, visual injury rating about 10 d after treatment, 0 to 100 scale (0 no effect, 100 complete control), read-out: Barnyardgrass plant response rating) of 90%.
